From patent publication US12139520B2 (priority 2020, dated 2024)
Bridge positions count the residues as written; N and C are the ends. Square brackets hold non-standard residues; d marks the D form. Peptide text beside a SMILES is read from it. Hyp = O=C(O)[C@@H]1C[C@@H](O)CN1; Cit = NC(=O)NCCC[C@H](N)C(=O)O

How the values were obtained:
[1] = target: hAM1 receptor (Homo sapiens, UniProt O60895+Q16602); assay: cAMP assay for in vitro receptor activation, hAM1-R; type: cell-based; details: cAMP assay, hAM1 receptor; read-out: hAM1R EC50
Chain of hAM1 receptor (Q16602 23-461): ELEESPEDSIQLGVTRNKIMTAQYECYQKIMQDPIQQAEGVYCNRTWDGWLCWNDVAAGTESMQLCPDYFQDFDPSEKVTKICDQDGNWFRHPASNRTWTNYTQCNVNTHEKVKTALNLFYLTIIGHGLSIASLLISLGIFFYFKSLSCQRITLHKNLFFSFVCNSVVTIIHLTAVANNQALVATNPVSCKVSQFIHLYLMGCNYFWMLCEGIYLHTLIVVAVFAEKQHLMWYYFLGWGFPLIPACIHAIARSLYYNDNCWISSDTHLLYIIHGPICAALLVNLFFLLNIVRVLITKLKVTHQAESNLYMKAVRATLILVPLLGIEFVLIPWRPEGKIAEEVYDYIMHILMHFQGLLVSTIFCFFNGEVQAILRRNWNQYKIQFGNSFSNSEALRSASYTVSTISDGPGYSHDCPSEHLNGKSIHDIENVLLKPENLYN
Chain of hAM1 receptor (O60895 43-175 partner): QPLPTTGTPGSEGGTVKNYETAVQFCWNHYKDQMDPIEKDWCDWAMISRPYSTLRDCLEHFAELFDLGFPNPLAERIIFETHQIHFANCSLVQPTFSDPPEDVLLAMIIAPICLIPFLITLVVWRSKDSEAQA
In short: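 Monoclonal stable hAM1-overexpressing cells, thawed from frozen stock; 8000 cells/well in DPBS + 0.05% casein + 0.5 mM IBMX; read-out cAMP.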

[2] = Physical stability of peptide analogues (Thioflavin T fibrillation); type: physicochemical; details: maximum ThT signal normalized between hAMY maximum and buffer background; 40° C., shaking, four days; pH 7 per table title
In short: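 Maximum ThT emission at 480 nm, after LOESS smoothing, is given as percent of the span from buffer background to hAMY. Conditions: 50 mM buffer at pH 4 or 7, 4 μM dye, 40 °C, repeated shaking, readings every 10 min for four days.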

[3] = target: T1, hAMY3 receptor (Homo sapiens, UniProt O60896+P30988); assay: cAMP assay for in vitro receptor activation, hAMY3-R; type: cell-based; details: cAMP assay, hAMY3 receptor; read-out: hAMY3R EC50
T1 sequence (P30988 25-474): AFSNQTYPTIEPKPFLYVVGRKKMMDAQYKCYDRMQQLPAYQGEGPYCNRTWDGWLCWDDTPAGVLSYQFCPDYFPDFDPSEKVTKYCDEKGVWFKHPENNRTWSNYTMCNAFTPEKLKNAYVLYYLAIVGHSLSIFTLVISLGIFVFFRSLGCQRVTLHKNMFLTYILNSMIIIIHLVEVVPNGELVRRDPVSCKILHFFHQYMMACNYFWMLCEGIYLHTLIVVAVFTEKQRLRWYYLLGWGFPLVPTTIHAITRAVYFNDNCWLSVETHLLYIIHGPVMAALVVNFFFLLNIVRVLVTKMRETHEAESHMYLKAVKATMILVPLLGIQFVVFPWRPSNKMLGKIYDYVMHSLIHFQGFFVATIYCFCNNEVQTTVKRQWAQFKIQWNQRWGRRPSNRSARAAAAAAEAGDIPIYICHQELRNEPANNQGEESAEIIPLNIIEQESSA
T1 sequence (O60896 24-148 partner): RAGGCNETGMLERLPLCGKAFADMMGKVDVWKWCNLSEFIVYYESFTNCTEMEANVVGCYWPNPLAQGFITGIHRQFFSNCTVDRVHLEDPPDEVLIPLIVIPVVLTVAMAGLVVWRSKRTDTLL
In short: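 Read-out is TR-FRET cAMP signal, recorded one hour after reagent addition, following 30 min room-temperature stimulation of stable hAMY3 cells with graded compound doses in casein/IBMX (0.5 mM) buffer.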

EC50 [1] [nM] | Max ThT signal (%) [2] [%] | EC50 [3] [nM] | Structure (SMILES)
> 5000 | 16.850 | 0.045 | CC[C@H](C)[C@H](NC(=O)[C@H](CCC(N)=O)NC(=O)[C@H](Cc1c[nH]cn1)NC(=O)[C@H](C)NC(=O)[C@H](CC(C)C)NC(=O)[C@H](CCCNC(N)=O)NC(=O)[C@H](CCC(N)=O)NC(=O)[C@@H](NC(=O)[C@@H](NC(=O)[C@@H]1CSSC[C@H](NC(=O)CN)C(=O)N[C@@H](CCCNC(=N)N)C(=O)N[C@@H](Cc2ccccc2)C(=O)NCC(=O)N[C@@H]([C@@H](C)O)C(=O)N1)[C@@H](C)O)C(C)C)C(=O)N[C@@H](Cc1ccc(O)cc1)C(=O)N[C@@H](CCC(N)=O)C(=O)N[C@@H](Cc1ccccc1)C(=O)N[C@H](C(=O)N[C@@H](CC(=O)O)C(=O)N[C@@H](CCCCN)C(=O)N[C@@H](CC(=O)O)C(=O)N[C@@H](CCCCN)C(=O)N[C@@H](CC(=O)O)C(=O)N[C@@H](CC(N)=O)C(=O)N[C@H](C(=O)N[C@@H](C)C(=O)N1CCC[C@H]1C(=O)N[C@@H](CCCNC(=N)N)C(=O)N[C@H](C(=O)N[C@@H](CCCCN)C(=O)N[C@H](C(=O)N[C@@H](CO)C(=O)N1CCC[C@H]1C(=O)N[C@@H](CCC(N)=O)C(=O)NCC(=O)N1C[C@H](O)C[C@H]1C(N)=O)[C@@H](C)CC)[C@@H](C)O)C(C)C)[C@@H](C)O [compound 294] (H-GCRFGTCTVQ[Cit]LAHQIYQFTDKDKDNVAPRTKISPQG[Hyp]-NH2; disulfide 2-7)
> 5000 | 22.650 | 0.018 | CC[C@H](C)[C@H](NC(=O)[C@H](CCC(N)=O)NC(=O)[C@H](Cc1c[nH]cn1)NC(=O)[C@H](C)NC(=O)[C@H](CC(C)C)NC(=O)[C@H](CCCNC(N)=O)NC(=O)[C@H](CCC(N)=O)NC(=O)[C@@H](NC(=O)[C@@H](NC(=O)[C@@H]1CSSC[C@H](NC(=O)CN)C(=O)N[C@@H](CCCNC(=N)N)C(=O)N[C@@H]([C@@H](C)O)C(=O)NCC(=O)N[C@@H]([C@@H](C)O)C(=O)N1)[C@@H](C)O)C(C)C)C(=O)N[C@@H](Cc1ccc(O)cc1)C(=O)N[C@@H](CCC(N)=O)C(=O)N[C@@H](Cc1ccccc1)C(=O)N[C@H](C(=O)N[C@@H](CC(=O)O)C(=O)N[C@@H](CCCCN)C(=O)N[C@@H](CC(=O)O)C(=O)N[C@@H](CCCCN)C(=O)N[C@@H](CC(=O)O)C(=O)N[C@@H](CC(N)=O)C(=O)N[C@H](C(=O)N[C@@H](C)C(=O)N1CCC[C@H]1C(=O)N[C@@H](CCCNC(=N)N)C(=O)N[C@H](C(=O)N[C@@H](CC(N)=O)C(=O)N[C@H](C(=O)NCC(=O)N1CCC[C@H]1C(=O)N[C@@H](CCC(N)=O)C(=O)NCC(=O)N1C[C@H](O)C[C@H]1C(N)=O)C(C)C)[C@@H](C)O)C(C)C)[C@@H](C)O [compound 261] (H-GCRTGTCTVQ[Cit]LAHQIYQFTDKDKDNVAPRTNVGPQG[Hyp]-NH2; disulfide 2-7; N-terminus assumed)
> 5000 | 15.600 | 0.006 | CC[C@H](C)[C@H](NC(=O)[C@H](CCC(N)=O)NC(=O)[C@H](Cc1c[nH]cn1)NC(=O)[C@H](C)NC(=O)[C@H](CC(C)C)NC(=O)[C@H](CCCNC(N)=O)NC(=O)[C@H](CCC(N)=O)NC(=O)[C@@H](NC(=O)[C@@H](NC(=O)[C@@H]1CSSC[C@H](NC(=O)[C@@H](N)CCCCN)C(=O)N[C@@H](CC(N)=O)C(=O)N[C@@H]([C@@H](C)O)C(=O)N[C@@H](C)C(=O)N[C@@H]([C@@H](C)O)C(=O)N1)[C@@H](C)O)C(C)C)C(=O)N[C@@H](Cc1ccc(O)cc1)C(=O)N[C@@H](CCC(N)=O)C(=O)N[C@@H](Cc1ccccc1)C(=O)N[C@@H](C)C(=O)N[C@@H](CC(=O)O)C(=O)N[C@@H](CCCCN)C(=O)N[C@@H](CC(=O)O)C(=O)N[C@@H](CCCCN)C(=O)N[C@@H](CC(=O)O)C(=O)N[C@@H](CC(N)=O)C(=O)N[C@H](C(=O)N[C@@H](C)C(=O)N1CCC[C@H]1C(=O)N1CCC[C@H]1C(=O)N[C@H](C(=O)N[C@@H](CC(N)=O)C(=O)N[C@H](C(=O)NCC(=O)N[C@@H](CO)C(=O)N[C@@H](CC(N)=O)C(=O)NCC(=O)N1C[C@H](O)C[C@H]1C(N)=O)C(C)C)[C@@H](C)O)C(C)C [compound 249] (H-KCNTATCTVQ[Cit]LAHQIYQFADKDKDNVAPPTNVGSNG[Hyp]-NH2; disulfide 2-7; N-terminus assumed)
> 5000 | 6.400 | 0.011 | CC[C@H](C)[C@H](NC(=O)[C@H](CCC(N)=O)NC(=O)[C@H](Cc1c[nH]cn1)NC(=O)[C@H](C)NC(=O)[C@H](CC(C)C)NC(=O)[C@H](CCCNC(N)=O)NC(=O)[C@H](CCC(N)=O)NC(=O)[C@@H](NC(=O)[C@@H](NC(=O)[C@@H]1CSSC[C@H](NC(=O)[C@@H](N)CCCCN)C(=O)N[C@@H](CC(N)=O)C(=O)N[C@@H]([C@@H](C)O)C(=O)N[C@@H](C)C(=O)N[C@@H]([C@@H](C)O)C(=O)N1)[C@@H](C)O)C(C)C)C(=O)N[C@@H](Cc1ccc(O)cc1)C(=O)N[C@@H](CCC(N)=O)C(=O)N[C@@H](Cc1ccccc1)C(=O)N[C@H](C(=O)N[C@@H](CC(=O)O)C(=O)N[C@@H](CCCCN)C(=O)N[C@@H](CC(=O)O)C(=O)N[C@@H](C)C(=O)N[C@@H](CC(=O)O)C(=O)N[C@@H](CC(N)=O)C(=O)N[C@H](C(=O)N[C@@H](C)C(=O)N1CCC[C@H]1C(=O)N1CCC[C@H]1C(=O)N[C@H](C(=O)N[C@@H](CC(N)=O)C(=O)N[C@H](C(=O)NCC(=O)N[C@@H](CO)C(=O)N[C@@H](CC(N)=O)C(=O)NCC(=O)N1C[C@H](O)C[C@H]1C(N)=O)C(C)C)[C@@H](C)O)C(C)C)[C@@H](C)O [compound 250] (H-KCNTATCTVQ[Cit]LAHQIYQFTDKDADNVAPPTNVGSNG[Hyp]-NH2; disulfide 2-7; N-terminus assumed)
> 5000 | 0.600 | 0.235 | CC[C@H](C)[C@H](NC(=O)[C@H](CCC(N)=O)NC(=O)[C@H](Cc1c[nH]cn1)NC(=O)[C@H](C)NC(=O)[C@H](CC(C)C)NC(=O)[C@H](CCCNC(=N)N)NC(=O)[C@H](CCC(N)=O)NC(=O)[C@@H](NC(=O)[C@@H](NC(=O)[C@@H]1CSSC[C@H](NC(=O)CN)C(=O)N[C@@H](CCCNC(=N)N)C(=O)N[C@@H]([C@@H](C)O)C(=O)NCC(=O)N[C@@H]([C@@H](C)O)C(=O)N1)[C@@H](C)O)C(C)C)C(=O)N[C@@H](Cc1ccc(O)cc1)C(=O)N[C@@H](CCC(N)=O)C(=O)N[C@@H](Cc1ccccc1)C(=O)N[C@H](C(=O)N[C@@H](CC(N)=O)C(=O)N[C@@H](CCCCN)C(=O)N[C@@H](CC(=O)O)C(=O)N[C@@H](CCCCN)C(=O)N[C@@H](CC(=O)O)C(=O)N[C@@H](CC(N)=O)C(=O)N[C@H](C(=O)N[C@@H](C)C(=O)N1CCC[C@H]1C(=O)N[C@@H](CCCNC(=N)N)C(=O)N[C@@H](CO)C(=O)N[C@@H](CCCCN)C(=O)N[C@H](C(=O)N[C@@H](CO)C(=O)N1CCC[C@H]1C(=O)N[C@@H](CCC(N)=O)C(=O)N[C@@H](Cc1ccccc1)C(=O)N1C[C@H](O)C[C@H]1C(N)=O)[C@@H](C)CC)C(C)C)[C@@H](C)O [compound 238] (H-GCRTGTCTVQRLAHQIYQFTNKDKDNVAPRSKISPQF[Hyp]-NH2; disulfide 2-7; N-terminus assumed)
> 5000 | 27.500 | 0.026 | CC[C@H](C)[C@H](NC(=O)[C@H](CC(N)=O)NC(=O)[C@H](CO)NC(=O)[C@H](CCCNC(=N)N)NC(=O)[C@@H]1CCCN1C(=O)[C@H](C)NC(=O)[C@@H](NC(=O)[C@H](CC(N)=O)NC(=O)[C@H](CC(=O)O)NC(=O)[C@H](CCCCN)NC(=O)[C@H](CC(=O)O)NC(=O)[C@H](CCCCN)NC(=O)[C@H](CC(=O)O)NC(=O)[C@@H](NC(=O)[C@H](Cc1ccccc1)NC(=O)[C@H](CCC(N)=O)NC(=O)[C@H](Cc1ccc(O)cc1)NC(=O)[C@@H](NC(=O)[C@H](CCC(N)=O)NC(=O)[C@H](Cc1c[nH]cn1)NC(=O)[C@H](C)NC(=O)[C@H](CC(C)C)NC(=O)[C@H](CCCNC(N)=O)NC(=O)[C@H](CCC(N)=O)NC(=O)[C@@H](NC(=O)[C@@H](NC(=O)[C@@H]1CSSC[C@H](NC(=O)CN)C(=O)N[C@@H](CCCNC(=N)N)C(=O)N[C@@H]([C@@H](C)O)C(=O)NCC(=O)N[C@@H]([C@@H](C)O)C(=O)N1)[C@@H](C)O)C(C)C)[C@@H](C)CC)[C@@H](C)O)C(C)C)C(=O)NCC(=O)N1CCC[C@H]1C(=O)N[C@@H](CC(N)=O)C(=O)NCC(=O)N1C[C@H](O)C[C@H]1C(N)=O [compound 297] (H-GCRTGTCTVQ[Cit]LAHQIYQFTDKDKDNVAPRSNIGPNG[Hyp]-NH2; disulfide 2-7; N-terminus assumed)
